From US7892782B2 (priority 1998, dated 2011) come the findings set out here.

One experiment relates to Staphylococcus aureus. In kind it is cell-based. To be noted: stationary phase ≅10^9 bacteria/ml, 100 μg/ml ampicillin, 3 days.
The subject of experiment [1] is M. tuberculosis persister cells. To be noted: data not shown.
The next experiment has as its system Escherichia coli K12. In kind it is cell-based. The conditions noted are these: stationary phase ≅10^9 bacteria/ml, 50 μg/ml kanamycin, 3 days.
For a further experiment, the system named is M. tuberculosis H37Rv. In kind it is cell-based, Mycobacterium tuberculosis.
The test system of experiment [2] is M. tuberculosis. As to the kind of experiment: Incorporation of [3H]-uridine into RNA after addition of rifampicin. The experiment is classed as cell-based, Mycobacterium tuberculosis. The method, then: For incorporation of radioactive uridine, 10 ml of the culture for each time point was washed twice to remove the remaining rifampicin and then resuspended in 10 ml 7H9 medium followed by incubation with 10 μCi/ml of [^3H]-uridine for 20 hours. For 5* the culture was not washed after incubation with rifampicin and 10 μCi/ml of [^3H]-uridine was added to the culture which was further incubated in the presence of rifampicin for 20 hours. The RNA was extracted by methods known in the art. The RNA [^3H]-uridine incorporation was determined as counts per minute of trichloroacetic acid precipitated RNA. The results were confirmed in three independent experiments.

Experiment [3] deals with M. tuberculosis. Nature of the experiment: RT-PCR of gene transcripts before and after rifampicin treatment. The experiment is classed as cell-based, Mycobacterium tuberculosis. The conditions noted are these: 12 hours in growth medium alone. As for the experimental part:
The metabolic state of bacilli before and after rifampicin treatment was also assessed by examining total RNA which was extracted. RT-PCR was performed on the following genes; rpoB which encodes the rifampicin target (RNA polymerase sub-unit B); 16 kDa protein α-crystallin homolog); 16S rRNA and two Sigma 70 homologues, sigA and sigB.

Consider `CC1(C)S[C@@H]2[C@H](NC(=O)[C@H](N)c3ccccc3)C(=O)N2[C@H]1C(=O)O` [ampicillin], for which the “phenotypically resistant subpopulation remaining” value in the experiment with Staphylococcus aureus is recorded as ~10^5 bacteria/ml.
As to `O=C(O)CN(CCN(CC(=O)O)CC(=O)O)CC(=O)O` [EDTA], the “effect on persister cell walls and efficacy of rifampicin” value in experiment [1] was “permeabilizes persister cell walls and increases the efficacy of rifampicin”.
Take `NC[C@H]1O[C@H](O[C@H]2[C@H](O)[C@@H](O[C@H]3O[C@H](CO)[C@@H](O)[C@H](N)[C@H]3O)[C@H](N)C[C@@H]2N)[C@H](O)[C@@H](O)[C@@H]1O` [kanamycin]: in the experiment on Escherichia coli K12, the “phenotypically resistant subpopulation remaining” value was ~10^5 bacteria/ml.
As for `CO[C@H]1/C=C/O[C@@]2(C)Oc3c(C)c(O)c4c(O)c(c(/C=N/N5CCN(C)CC5)c(O)c4c3C2=O)NC(=O)/C(C)=C\C=C\[C@H](C)[C@H](O)[C@@H](C)[C@@H](O)[C@@H](C)[C@H](OC(C)=O)[C@@H]1C` [rifampicin], in the experiment with M. tuberculosis H37Rv, the Broth counts is listed as 10^2 bacteria/ml. The “Broth dilution counts of rifampicin treated cultures” value in the experiment with M. tuberculosis H37Rv is reported as 10^2 bacteria/ml. Moreover, the “[3H]-uridine incorporation” value with M. tuberculosis [2] (100 μg/ml rifampicin 1 day, washed, then 20 h with [3H]-uridine) was 2228 ± 88 counts per minute; with M. tuberculosis [2] (100 μg/ml rifampicin 2 days, washed, then 20 h with [3H]-uridine), 2316 ± 120 counts per minute; in the experiment on M. tuberculosis [2] (100 μg/ml rifampicin 3 days, washed, then 20 h with [3H]-uridine) it was 2430 ± 54 counts per minute; with M. tuberculosis [2] (100 μg/ml rifampicin 4 days, washed, then 20 h with [3H]-uridine), 2318 ± 126 counts per minute; in the experiment with M. tuberculosis [2] (100 μg/ml rifampicin 5 days, washed, then 20 h with [3H]-uridine), 2388 ± 20 counts per minute; with M. tuberculosis [2] (5*: 5 days, not washed, [3H]-uridine 20 h in the presence of rifampicin) it was 518 ± 10 counts per minute. In addition, the “increase of radioactive uridine incorporation after removal of rifampicin” value with M. tuberculosis [2] (medium alone versus in the presence of rifampicin (5 versus 5* days)) is on record as “about 5 fold”. In addition, the “increase of level of transcription (16K, sigA and rpoB transcripts) after removal of rifampicin” value with M. tuberculosis [3] is 5- to 10 fold.
